Assay [1] deals with Plasmodium falciparum. In words: In vitro antimalarial activity against Plasmodium falciparum D6 Sierra Leone. The format is functional, organism-based.
Assay [2] has as its system Plasmodium falciparum. In words: In vitro antimalarial activity against Plasmodium falciparum W-2 (Indochina). The format is functional, organism-based.
Assay [3] has as its system Mus musculus. Briefly: Antimalarial activity against Plasmodium berghei in mice (Mus musculus) expressed as number of cures was determined at a dose of 640 mg/kg. The format is functional.
For assay [4], the system named is Mus musculus. In words: Antimalarial activity against Plasmodium berghei in mice (Mus musculus) expressed as number of cures was determined at a dose of 40 mg/kg. The format is functional.
Assay [5] deals with Mus musculus. Briefly: Antimalarial activity against Plasmodium berghei in mice (Mus musculus) expressed as number of cures was determined at a dose of 160 mg/kg. The format is functional.

In brackets after ≈: the same amount, converted by molar mass. Several values for one entry are separate records, joined by “and”; a condition that tells them apart may be missing. Identical values can stand only once.

As to `C[C@H]1[C@@H](OCCCC(=O)O)O[C@@H]2O[C@]3(C)CC[C@H]4[C@H](C)CC[C@@H]1[C@@]24OO3`, the figures for the IC50 with Plasmodium falciparum [1] and in the assay with Plasmodium falciparum [2] were 17.9 ng/mL (≈ 48.3 nM) and 8.04 ng/mL (≈ 21.7 nM), respectively.

Regarding `C[C@H]1[C@@H](OCc2ccc(C(=O)O)cc2)O[C@@H]2OC3(C)CC[C@H]4[C@H](C)CC[C@@H]1[C@@]24OO3` (single isomer, unassigned), the values for the IC50 with Plasmodium falciparum [1] and in the assay on Plasmodium falciparum [2] were 1.74 ng/mL (≈ 4.16 nM) and 0.92 ng/mL (≈ 2.2 nM), respectively.

`COC(=O)CCCO[C@H]1O[C@@H]2OC3(C)CC[C@H]4[C@H](C)CC[C@@H]([C@H]1C)[C@@]24OO3` (single isomer, unassigned): the half-maximal inhibitory concentration (IC50) (usually the concentration that gives 50% inhibition) is 3.06 ng/mL (≈ 7.96 nM) with Plasmodium falciparum [1] and 0.95 ng/mL (≈ 2.47 nM) with Plasmodium falciparum [2].

As for `COC(=O)c1ccc(CO[C@H]2O[C@@H]3OC4(C)CC[C@H]5[C@H](C)CC[C@@H]([C@H]2C)[C@@]35OO4)cc1` (single isomer, unassigned), the IC50 in the assay on Plasmodium falciparum [1] came out at 0.77 ng/mL (≈ 1.78 nM); in the assay on Plasmodium falciparum [2], 0.37 ng/mL (≈ 0.855 nM).

For `COC(=O)CCO[C@H]1O[C@@H]2OC3(C)CC[C@H]4[C@H](C)CC[C@@H]([C@H]1C)[C@@]24OO3` (single isomer, unassigned), the figures for the IC50 in the assay on Plasmodium falciparum [1] and in the assay on Plasmodium falciparum [2] were 1.84 ng/mL (≈ 4.97 nM) and 0.64 ng/mL (≈ 1.73 nM), respectively.

For `C[C@H]1[C@@H](OCC(=O)O)O[C@@H]2OC3(C)CC[C@H]4[C@H](C)CC[C@@H]1[C@@]24OO3` (single isomer, unassigned), the IC50 with Plasmodium falciparum [1] is 53.8 ng/mL (≈ 157 nM); in the assay with Plasmodium falciparum [2] it was 26.2 ng/mL (≈ 76.6 nM).

For `C[C@H]1[C@@H](OCCCC(=O)O)O[C@@H]2OC3(C)CC[C@H]4[C@H](C)CC[C@@H]1[C@@]24OO3` (single isomer, unassigned), the IC50 in the assay with Plasmodium falciparum [1] was determined as 75.5 ng/mL (≈ 204 nM); in the assay with Plasmodium falciparum [2], 10.5 ng/mL (≈ 28.4 nM).

As to `CCOC(=O)CO[C@H]1O[C@@H]2OC3(C)CC[C@H]4[C@H](C)CC[C@@H]([C@H]1C)[C@@]24OO3` (single isomer, unassigned), the figures for the IC50 in the assay on Plasmodium falciparum [1] and in the assay with Plasmodium falciparum [2] were 0.6 ng/mL (≈ 1.62 nM) and 0.26 ng/mL (≈ 0.702 nM), respectively.

As for `C[C@H]1[C@@H](OCCC(=O)O)O[C@@H]2OC3(C)CC[C@H]4[C@H](C)CC[C@@H]1[C@@]24OO3` (single isomer, unassigned; 7b), the IC50 in the assay with Plasmodium falciparum [1] worked out at 85 ng/mL (≈ 239 nM); in the assay on Plasmodium falciparum [2], 23.3 ng/mL (≈ 65.3 nM).

Take `C[C@H]1[C@@H](OCCC(=O)O)O[C@@H]2OC3(C)CC[C@H]4[C@H](C)CC[C@@H]1[C@@]24OO3` (single isomer, unassigned; 8b): the IC50 in the assay with Plasmodium falciparum [1] is 51.7 ng/mL (≈ 145 nM); in the assay with Plasmodium falciparum [2] it was 35.6 ng/mL (≈ 100 nM).

With `C[C@@H]1[C@H](OCc2ccc(C(=O)O)cc2)O[C@@H]2O[C@@]3(C)CC[C@@H]4[C@@H](C)CC[C@@H]1[C@]24OO3` [ARTELINIC ACID], the IC50 in the assay on Plasmodium falciparum [1] was 4.07 ng/mL (≈ 9.73 nM); with Plasmodium falciparum [2] it was 1.38 ng/mL (≈ 3.3 nM). Besides, the No. of cures in the assay with Mus musculus [3], in the assay with Mus musculus [4] and in the assay with Mus musculus [5] was 5 each time.

On to `C[C@@H]1CC[C@H]2[C@@H](C)C(=O)O[C@@H]3O[C@@]4(C)CC[C@@H]1[C@]32OO4` [ARTEMISININ], for which the IC50 was 2.93 ng/mL (≈ 10.4 nM) with Plasmodium falciparum [1] and 0.66 ng/mL (≈ 2.34 nM) in the assay with Plasmodium falciparum [2]. The No. of cures is 5 with Mus musculus [3]; 3 and 2 in the assay on Mus musculus [4] (40 mg/kg); 5 in the assay on Mus musculus [5].

The molecule `C[C@H]1[C@H](OC(=O)CCC(=O)[O-])O[C@@H]2O[C@@]3(C)CC[C@H]4[C@H](C)CC[C@@H]1[C@@]24OO3.[Na+]` [SODIUM ARESUNATE] came in with a No. of cures in the assay with Mus musculus [3] of 5.

For the origin of these results see ChEMBL document CHEMBL1123552 (J Med Chem, 1987).
